Results taken from article PMC4750701, “Role of Mitochondrial RNA Polymerase in the Toxicity of Nucleotide Inhibitors of Hepatitis C Virus” (Antimicrobial Agents and Chemotherapy, 2016).
Where two headings read alike, the source gives them in different places.

How the values were obtained:
[1] = test system: Primary human hepatocytes; assay: Cytotoxicity in primary human hepatocytes, 5 days; settings: read-out: Mean CC50 ± SD in Hepatic cells (primary); human primary hepatocytes, 5 days
Procedure: (§2) Primary human hepatocytes were from Bioreclamation IVT (Westbury, NY) or Life Technologies (Carlsbad, CA).
(§3) All cells were cultured at 37°C in a 5% CO2 incubator with 90% humidity unless noted otherwise. […] All cells were treated with the various compounds for 5 days, except for human erythroid and myeloid progenitors, which were treated for 14 days. After the incubation period, cell viability was measured by the addition of CellTiter Glo viability reagents (Promega, Madison, WI). The luminescence signal was quantified on an Envision luminescence plate reader (PerkinElmer, Waltham, MA) after incubation of the reagents and cells for 10 min at room temperature. […] CC50 values were calculated as the average of the results of three or four independent experiments.

Quiescent PBMCs = assay: Cytotoxicity in quiescent PBMCs, 5 days; settings: read-out: Mean CC50 ± SD in PBMCs Quiescent; 5 days
Procedure: (§4) Human peripheral blood mononuclear cells (PBMCs) were isolated from human buffy coats obtained from healthy volunteers (Stanford Blood Bank, Palo Alto, CA) using standard Ficoll separation and stimulated as described elsewhere ([13]) and were tested at both quiescent and stimulated stages. Quiescent PBMCs were stimulated with 10 units per ml of recombinant human interleukin 2 (hIL-2) and 1 μg per ml phytohemagglutinin P (PHA-P) for 48 h prior to drug treatment.
as §3
(§5) Human peripheral blood mononuclear cells (PBMCs) were isolated from human buffy coats
(§6) obtained from normal healthy volunteers (Stanford Medical School Blood Center, Palo Alto,
(§7) CA). Total PBMCs were isolated from buffy coats using standard Ficoll separation and sterile
(§8) cellular isolation techniques performed in a bio-safety cabinet (1). Except where noted, the
(§9) procedure was carried out at room temperature. The final PBMCs pellet was resuspended in
(§10) Logan, UT), penicillin 100 units/mL and streptomycin 100 µg/mL (Gibco). For quiescent
(§11) PBMCs cultures, total cells were seeded in 96-well plates at a density of 1 x 10^6 cells per well, followed by immediate drug treatment. Stimulated PBMCs cultures were set up by seeding the freshly isolated PBMCs in T-175cm2 tissue culture flasks in 100 mL of RPMI containing the same components as the ones used for the quiescent PBMCs but with the addition of 10 units per mL of recombinant human interleukin-2 (hIL-2, Roche, Indianapolis, IN), and 1 µg per mL phytohemagglutinin-P (PHA-P, Sigma-Aldrich, St. Louis, MO) at density of 2  10^6 cells per mL for 48 hours at 37C in a 5% CO2 incubator with 90% humidity, prior to drug treatment.

[2] = test system: human erythroid progenitors (bone marrow cells); assay: Bone marrow erythroid progenitor colony assay, 14 days; format: cell-based; settings: read-out: Mean CC50 ± SD in Bone marrow cells Erythroid
Stimulated PBMCs = assay: Cytotoxicity in stimulated PBMCs, 5 days; settings: read-out: Mean CC50 ± SD in PBMCs Stimulated; 5 days
Procedure: as §4, §3, §5, §6, §7, §8, §9, §10, §11

[3] = test system: human myeloid progenitors (bone marrow cells); assay: Bone marrow myeloid progenitor colony assay, 14 days; format: cell-based; settings: read-out: Mean CC50 ± SD in Bone marrow cells Myeloid
HepG2 (galactose) = assay: Cytotoxicity in HepG2 (galactose) cells, 5-day treatment; settings: read-out: Mean CC50 ± SD in Hepatic cells HepG2 (galactose); 5-day treatment
[4] = test system: mitochondrial DNA in PC-3 cells and HepG2 cells; assay: Mitochondrial DNA depletion, PC-3 versus HepG2 cells; format: cell-based, human; settings: 10-day treatment
Excerpt: Supplementary Fig. S1: PC-3 cells are more sensitive to ddC-induced mitochondria toxicity than HepG2 cells. (A) Levels of mitochondrial DNA in PC-3 cells (shown in […] and dashed line) and HepG2 cells (shown in • and solid line) after 10-day treatment; Levels of mitochondrial protein synthesis in PC-3 cells (B) and HepG2 cells (C) represented by COX-1 protein and nuclear protein synthesis represented by SDH-A protein after 5-day treatment. The levels of COX-1 (•), SDH-A ([…]), and ATP (<) are curve fitted to solid, dash, and dotted lines, […]

[5] = test system: mitochondrial spare respiratory capacity in PC-3 cells; assay: Oxygen consumption rate / spare respiratory capacity in PC-3 cells; settings: PC-3 cells
Huh7 = assay: Cytotoxicity in Huh7 cells, 5-day treatment (CellTiter Glo); settings: read-out: Mean CC50 ± SD in Hepatic cells Huh7; 5-day treatment
Prostate cells (PC-3) = assay: Cytotoxicity / ATP level in PC-3 cells, 5-day treatment
Procedure: as §3
Cell Culture and Cytotoxicity Studies
The Huh-7 cells were maintained in growth medium containing Dulbecco's Modified Eagle
Medium (DMEM, Cellgro) supplemented with 1% Nonessential Amino Acids (NEAA, Cellgro,
Manassas, VA), 10% fetal bovine serum (FBS, HyClone, Logan, UT) and 1% Penicillin-
streptomycin-glutamate (PSG, Invitrogen, Carlsbad, CA). The cells were passaged twice weekly
and maintained at 90% confluence densities.
The HepG2 cells were maintained in Eagle’s Minimum Essential Medium (EMEM) from ATCC
(Manassas, VA) supplemented with 10% FBS, 100 units/mL penicillin and 100 µg/mL
streptomycin (P/S) (Gibco). The cells were passaged twice weekly and maintained at 90%
The PC-3 cells were maintained in Kaighn’s F12 medium (Gibco, Carlsbad, CA) supplemented
with 10% FBS (HyClone, Logan, UT), 100 units/mL penicillin and 100 µg/mL streptomycin
(P/S) (Gibco). The cells were passaged twice weekly and maintained at 90% confluence. Cells
between passages 4 and 15 were used in the assays.
The fibroblast cell line MRC-5 cell line derived from normal lung tissue, was purchased from
ATCC (Manassas, VA) and cultured in Minimum Essential Medium (MEM) (Cellgro, Manassas,
VA) supplemented with 10% FBS (HyClone, Logan, UT) and 1% PSG (Invitrogen). The cells
were passaged twice weekly and maintained at 90% confluence densities.

[6] = test system: nuclear DNA-encoded succinate dehydrogenase (SDH-A); assay: Nuclear protein synthesis (SDH-A, MitoBiogenesis in-cell ELISA) in PC-3 cells; format: cell-based, human; settings: 5 days, read-out: Mean CC50 ± SD causing General cellular toxicity: Protein synthesis
Procedure: (§1) PC-3 cells were treated with the compounds for 5 days and analyzed with the MitoTox MitoBiogenesis in-cell enzyme-linked immunosorbent assay (ELISA) kit (MitoSciences/Abcam, Eugene, Oregon) as described previously ([13]). The assay uses quantitative immunocytochemistry to measure the protein levels of nuclear DNA-encoded succinate dehydrogenase (SDH-A; complex II [succinate dehydrogenase]) and mitochondrial DNA-encoded cytochrome c oxidase (COX-1; complex IV [cytochrome c oxidase]) in cultured cells.

T-cells (MT-4) = assay: Cytotoxicity in MT-4 T-cells, 5-day treatment; settings: read-out: Mean CC50 ± SD in T-cells (MT-4); 5-day treatment
Procedure: as §2, §3

[7] = test system: mitochondrial DNA-encoded cytochrome c oxidase (COX-1); assay: Mitochondrial protein synthesis assay (COX-1, MitoBiogenesis in-cell ELISA) in PC-3 cells; format: cell-based, human
Procedure: as §1

Fibroblasts (MRC5) = assay: Cytotoxicity in MRC5 fibroblasts, 5-day treatment; settings: read-out: Mean CC50 ± SD in Fibroblasts (MRC5); 5-day treatment

For `O=c1[nH]cc(F)c(=O)[nH]1` [5-FU, 5-flurouracil], the CC50 [1] was > 100 µM, the CC50 (Quiescent PBMCs) was > 100 µM and the CC50 [2] was 3.7 ± 0.5 µM. For the same compound, the CC50 (Stimulated PBMCs) was > 100 µM and the CC50 [3] was 3.4 ± 0.8 µM.
`Nc1ccn([C@H]2CC[C@@H](CO)O2)c(=O)n1` [ddC, dideoxycytosine] was tested, and the CC50 (HepG2 (galactose)) was > 89 µM, the “fold greater sensitivity of PC-3 cells than HepG2 cells to mitochondrial DNA depletion” value [4] was > 30 fold and the CC50 [1] was > 100 µM. The CC50 (Quiescent PBMCs) was > 100 µM, the “selectivity of effect on spare respiratory capacity versus DNA and ATP levels” value ([5]; 3-day treatments) was “specifically inhibited mitochondrial spare respiratory capacity” and the CC50 ([5]; read-out: Mean CC50 ± SD causing Mitochondrial toxicity: Respiration, spare respiratory capacity, 3 days) was 0.21 ± 0.03 µM. For the same compound, the CC50 (Huh7) was > 89 µM, the CC50 [2] was 1.9 ± 0.3 µM and the CC50 (Stimulated PBMCs) was > 100 µM. For the same compound, the CC50 [3] was 9.7 ± 2 µM, the CC50 (Prostate cells (PC-3); read-out: Mean CC50 ± SD causing General cellular toxicity: ATP level, PC-3 cells, 5 days) was 0.8 ± 0.21 µM and the CC50 (Prostate cells (PC-3); read-out: Mean CC50 ± SD in Prostate cells (PC-3), 5-day treatment) was 0.8 ± 0.21 µM. The CC50 [6] was > 1 µM, the CC50 (T-cells (MT-4)) was > 89 µM and the “fold greater sensitivity of PC-3 cells than HepG2 cells to reductions in COX-1 protein expression” value ([7]; 5-day treatment) was > 500 fold. The “selectivity of effect on COX-1 versus SDH-A and ATP levels” value ([7]; PC-3 cells, 5-day treatments) was “specifically inhibited COX-1 synthesis”, the CC50 ([7]; PC-3 cells, COX-1, 5 days, read-out: Mean CC50 ± SD causing Mitochondrial toxicity: Protein synthesis) was 0.19 ± 0.07 µM and the CC50 (Fibroblasts (MRC5)) was > 89 µM.
